Measured values from PubChem BioAssay AID192 (DTP/NCI, 2004).
Values joined by “and” are separate entries in the source; they are usually repeats but may differ in a detail not shown here. Equal entries are not always repeated. Toxic doses and inconclusive results are not listed. Rule for the calls: active = survival T/C of 150% or more; inactive = T/C below 125% in these data.

System: BDF1 mice, B16 melanoma ip, median survival T/C
Test: NCI In Vivo Anticancer Drug Screen. Data for tumor model B16 Melanoma (intraperitoneal) in B6D2F1 (BDF1) mice
Conditions: endpoint: median survival time, higher = longer survival
Method: The antitumor activity of compounds was measured in mice bearing transplantable tumors. Survival or tumor size were measured and the results are expressed as the measurement made in the treated group (T) divided by the measurement made in the vehicle treated control group (C). The tumor model used in this assay is B16 Melanoma (intraperitoneal) in B6D2F1 (BDF1) mice

[1] = dose: 3.12 mg/kg/injection, schedule: Q01DX009 (ip), vehicle: Klucel (hydroxypropylcellulose) (HPC)
[2] = dose: 6.25 mg/kg/injection, schedule: Q01DX009 (ip), vehicle: Klucel (hydroxypropylcellulose) (HPC)
[3] = dose: 12.5 mg/kg/injection, schedule: Q01DX009 (ip), vehicle: Klucel (hydroxypropylcellulose) (HPC)
[4] = dose: 25.0 mg/kg/injection, schedule: Q01DX009 (ip), vehicle: Klucel (hydroxypropylcellulose) (HPC)
[5] = dose: 25.0 mg/kg/injection, schedule: Q01DX009 (ip), vehicle: saline with Tween-80
[6] = dose: 50.0 mg/kg/injection, schedule: Q01DX009 (ip), vehicle: Klucel (hydroxypropylcellulose) (HPC)
[7] = dose: 50.0 mg/kg/injection, schedule: Q01DX009 (ip), vehicle: saline with Tween-80
[8] = dose: 100.0 mg/kg/injection, schedule: Q01DX009 (ip), vehicle: Klucel (hydroxypropylcellulose) (HPC)
[9] = dose: 100.0 mg/kg/injection, schedule: Q01DX009 (ip), vehicle: saline with Tween-80
[10] = dose: 200.0 mg/kg/injection, schedule: Q01DX009 (ip), vehicle: saline with Tween-80
[11] = dose: 400.0 mg/kg/injection, schedule: Q01DX009 (ip), vehicle: saline with Tween-80
[12] = dose: 200.0 mg/kg/injection, schedule: Q01DX009 (ip), vehicle: Klucel (hydroxypropylcellulose) (HPC)
[13] = dose: 400.0 mg/kg/injection, schedule: Q01DX009 (ip), vehicle: Klucel (hydroxypropylcellulose) (HPC)
[14] = dose: 6.25 mg/kg/injection, schedule: Q01DX009 (ip), vehicle: saline
[15] = dose: 6.25 mg/kg/injection, schedule: Q01DX009 (ip), vehicle: water
[16] = dose: 12.5 mg/kg/injection, schedule: Q01DX009 (ip), vehicle: saline
[17] = dose: 12.5 mg/kg/injection, schedule: Q01DX009 (ip), vehicle: water
[18] = dose: 25.0 mg/kg/injection, schedule: Q01DX009 (ip), vehicle: saline
[19] = dose: 25.0 mg/kg/injection, schedule: Q01DX009 (ip), vehicle: water
[20] = dose: 50.0 mg/kg/injection, schedule: Q01DX009 (ip), vehicle: saline
[21] = dose: 50.0 mg/kg/injection, schedule: Q01DX009 (ip), vehicle: water
[22] = dose: 100.0 mg/kg/injection, schedule: Q01DX009 (ip), vehicle: saline
[23] = dose: 12.5 mg/kg/injection, schedule: Q01DX009 (ip), vehicle: saline with Tween-80

Measured: T/C

Oc1ccc(Nc2ccnc3cc(Cl)ccc23)cc1CN(CCCl)CCCl
inactive: dose: 0.31 mg/kg/injection, schedule: Q01DX009 (ip), vehicle: saline 97 % of control | dose: 0.63 mg/kg/injection, schedule: Q01DX009 (ip), vehicle: saline 105 % of control | dose: 1.25 mg/kg/injection, schedule: Q01DX009 (ip), vehicle: saline 107 % of control and 113 % of control | dose: 2.5 mg/kg/injection, schedule: Q01DX009 (ip), vehicle: saline 115 % of control

CCc1c(CC(=O)O)c2cc(C)ccc2n1Cc1ccc(Cl)cc1
inactive: [1] 110 % of control and 119 % of control | [2] 106 % of control and 114 % of control | [3] 91 % of control and 111 % of control | [4] 88 % of control and 106 % of control and 97 % of control | [5] 97 % of control | [6] 101 % of control and 104 % of control and 105 % of control | [7] 97 % of control | dose: 50.0 mg/kg/injection, schedule: Q04DX003 (ip), vehicle: saline with Tween-80 104 % of control | [8] 88 % of control and 95 % of control and 90 % of control | [9] 88 % of control | dose: 100.0 mg/kg/injection, schedule: Q04DX003 (ip), vehicle: saline with Tween-80 88 % of control

c1ccc(-c2nn3c(-c4ccccc4)nnc3o2)cc1
inactive: [9] 93 % of control | [10] 92 % of control | [11] 92 % of control

NNC(=O)CCC(=O)NN
inactive: [9] 102 % of control | [10] 104 % of control | [11] 93 % of control

c1ccc(-c2nnc(-c3ccccn3)nn2)nc1
inactive: [6] 103 % of control | [8] 107 % of control | [12] 97 % of control | [13] 96 % of control

CCOC(=O)C(Cl)CCl (stereo not given)
inactive: [6] 100 % of control | [8] 100 % of control

CS(=O)(=O)c1cnc2ccccc2n1
inactive: [5] 94 % of control | [7] 86 % of control

CCOC(C)C(/C=N/NC(N)=S)=NNC(N)=S (stereo not given)
inactive: [7] 90 % of control

CCC1(C)CC(=O)NC(=O)C1
inactive: dose: 0.93 mg/kg/injection, schedule: Q01DX009 (ip), vehicle: saline 110 % of control | dose: 1.87 mg/kg/injection, schedule: Q01DX009 (ip), vehicle: saline 97 % of control | dose: 3.75 mg/kg/injection, schedule: Q01DX009 (ip), vehicle: saline 110 % of control | dose: 7.5 mg/kg/injection, schedule: Q01DX009 (ip), vehicle: saline 107 % of control | dose: 15.0 mg/kg/injection, schedule: Q01DX009 (ip), vehicle: saline 107 % of control

C[C@@H]1CC2=CC(=O)C=C[C@]2(C)[C@H]2CC[C@@]3(C)[C@@H](CC[C@]3(C)O)[C@H]12
inactive: [2] 107 % of control | [3] 103 % of control | [4] 102 % of control | [6] 95 % of control | [8] 93 % of control

CN(C(=S)S(=O)(=O)C12CC3CC(CC(C3)C1)C2)c1ccccc1
inactive: [1] 98 % of control | [2] 98 % of control | [3] 95 % of control | [4] 95 % of control | [6] 88 % of control

CNc1nc(N(C)C)nc(N(C)C)n1
inactive: [14] 115 % of control | [15] 96 % of control and 100 % of control | [16] 111 % of control | [17] 95 % of control and 102 % of control | [18] 111 % of control | [19] 94 % of control | [20] 116 % of control | [21] 100 % of control and 118 % of control | [22] 116 % of control | dose: 100.0 mg/kg/injection, schedule: Q01DX009 (ip), vehicle: water 100 % of control and 105 % of control

CC(C)C(NC=O)C(=O)O (stereo not given)
inactive: [7] 101 % of control | [9] 97 % of control | [10] 92 % of control

CCCCCCCCCCCCNC(=O)Nc1cccc(C)c1C
inactive: [8] 100 % of control | [12] 100 % of control | [13] 96 % of control

S=c1[nH]nc(NC2CCCCC2)s1
inactive: [4] 97 % of control | [6] 91 % of control | dose: 100.0 mg/kg/injection, schedule: Q04DX003 (ip), vehicle: Klucel (hydroxypropylcellulose) (HPC) 97 % of control | dose: 200.0 mg/kg/injection, schedule: Q04DX003 (ip), vehicle: Klucel (hydroxypropylcellulose) (HPC) 91 % of control

CCNc1nc(NCC)nc(SC)n1
inactive: [5] 97 % of control | [7] 87 % of control | [9] 105 % of control

CC[n+]1c(C)sc2cc3c(cc21)OCO3
inactive: dose: 25.0 mg/kg/injection, schedule: Q01DX009 (ip), vehicle: carboxymethylcellulose (CMC) 108 % of control | dose: 50.0 mg/kg/injection, schedule: Q01DX009 (ip), vehicle: carboxymethylcellulose (CMC) 106 % of control

CCCCCOc1ccc(C(=O)CC(=O)OCC)cc1
inactive: [8] 93 % of control | [12] 106 % of control | [13] 93 % of control

C=CCNc1nc2c(s1)CCc1cc(OC)c(OC)cc1-2
inactive: [23] 104 % of control | [5] 106 % of control | [7] 115 % of control | [9] 104 % of control | [10] 104 % of control

Cc1ccccc1OCC(O)CO (stereo not given)
inactive: [7] 92 % of control | [9] 110 % of control | [10] 110 % of control | [11] 105 % of control

CC1=Nc2ccccc2/C1=C\c1c(C)[nH]c2ccccc12
inactive: [18] 110 % of control | [20] 113 % of control | [22] 121 % of control | dose: 200.0 mg/kg/injection, schedule: Q01DX009 (ip), vehicle: saline 97 % of control

O=C1C2CC=CCC2C(=O)N1SC(Cl)(Cl)Cl (stereo not given)
inactive: dose: 0.2 mg/kg/injection, schedule: Q01DX009 (ip), vehicle: saline with Tween-80 98 % of control | dose: 0.4 mg/kg/injection, schedule: Q01DX009 (ip), vehicle: saline with Tween-80 100 % of control | dose: 0.8 mg/kg/injection, schedule: Q01DX009 (ip), vehicle: saline with Tween-80 97 % of control | dose: 3.13 mg/kg/injection, schedule: Q01DX009 (ip), vehicle: saline with Tween-80 88 % of control

C=C1C(=O)OCC1(C(=O)OCC)C(=O)OCC
inactive: dose: 4.0 mg/kg/injection, schedule: Q01DX009 (ip), vehicle: saline with Tween-80 109 % of control | dose: 8.0 mg/kg/injection, schedule: Q01DX009 (ip), vehicle: saline with Tween-80 97 % of control | dose: 16.0 mg/kg/injection, schedule: Q01DX009 (ip), vehicle: saline with Tween-80 89 % of control

Cc1cc2cc3c(C)cc(=O)oc3c(C)c2o1
inactive: [9] 119 % of control | [10] 117 % of control | [11] 100 % of control

CC1OC(C)(C)OC1C(=O)O (stereo not given)
inactive: [15] 96 % of control | [17] 119 % of control | [19] 104 % of control | [21] 105 % of control

CCOC(=O)CCC(NC(=O)c1ccc(NCc2ccc3nc(N)nc(N)c3c2C)cc1)C(=O)OCC (stereo not given)
inactive: dose: 0.01 mg/kg/injection, schedule: Q01DX009 (ip), vehicle: saline + alcohol 108 % of control | dose: 0.02 mg/kg/injection, schedule: Q01DX009 (ip), vehicle: saline + alcohol 102 % of control | dose: 0.03 mg/kg/injection, schedule: Q01DX009 (ip), vehicle: saline + alcohol 105 % of control | dose: 0.06 mg/kg/injection, schedule: Q01DX009 (ip), vehicle: saline + alcohol 93 % of control | dose: 0.11 mg/kg/injection, schedule: Q01DX009 (ip), vehicle: saline + alcohol 91 % of control

c1ccc2sc(SSN3CCOCC3)nc2c1
inactive: [3] 97 % of control | [6] 94 % of control

Cc1ccc(NC(=O)c2ccccc2Cl)cc1
inactive: [9] 105 % of control | [10] 97 % of control

BrC1c2cccc3cccc(c23)C1Br (stereo not given)
inactive: dose: 6.25 mg/kg/injection, schedule: Q01DX009 (ip), vehicle: saline with Tween-80 116 % of control | [23] 113 % of control | [5] 124 % of control | [7] 121 % of control

COc1cc(C)c2c(c1C=O)Oc1c(c(C)c(O)c3c1C(O)OC3=O)OC2=O (stereo not given)
inactive: dose: 3.12 mg/kg/injection, schedule: Q01DX009 (ip), vehicle: saline 101 % of control | [14] 94 % of control | [16] 100 % of control | [18] 101 % of control | [20] 87 % of control

C[CH2][Pb]([CH2]C)([CH2]C)[O][As](=O)(O)c1ccc(N)cc1
inactive: dose: 1.5 mg/kg/injection, schedule: Q01DX009 (ip), vehicle: saline 98 % of control | dose: 3.0 mg/kg/injection, schedule: Q01DX009 (ip), vehicle: saline 96 % of control
